Measured values reported in patent US9339491B2, “Use of a pyrazole derivative in the treatment of acute exacerbations of chronic obstructive pulmonary disease” (Mereo BioPharma 1 Limited, priority 2012, dated 2016).

Key:
[1] = system: patients who have an acute COPD exacerbation; experiment: Clinical study in acute COPD exacerbation: patient disposition / discontinuation; assay type: in vivo; conditions: for Reason for discontinuation: Death: 2nd interim, 30 days of follow-up, Compound A N = 31, Prednisone N = 30; for Reason for discontinuation: Adverse Events: human, in vivo
Procedure: (§1) An exploratory, randomized, double-blind, placebo controlled, multi-center study to assess the efficacy, safety and tolerability of a single 75 mg dose of 3-[5-amino-4-(3-cyano-benzoyl)-pyrazol-1-yl]-N-cyclopropyl-4-methylbenzamide administered orally to patients who have an acute COPD exacerbation
(§2) The efficacy, safety and tolerability of a single 75 mg dose of 3-[5-amino-4-(3-cyano-benzoyl)-pyrazol-1-yl]-N-cyclopropyl-4-methylbenzamide (Compound A) administered orally to patients who have an acute COPD exacerbation was conducted.
(§3) 90 patients were randomized 1:1:1 to three treatment arms.
(§4) =single 75 mg dose of Compound A on day 1+prednisone placebo×10 days
(§5) =single dose of Compound A placebo on day 1+prednisone placebo×10 days
(§6) =single dose of Compound A placebo on day 1+40 mg oral prednisone […]×10 days
(§7) =doxycycline 100 mg dose×10 days or a non-macrolide antibiotic concurrent with local prescribing antibiotic guidelines.
(§8) Present data (at 2nd interim) includes total of 91 randomized patients with 30 days of follow-up.

[2] = system: patients who have an acute COPD exacerbation; experiment: Clinical study in acute COPD exacerbation: treatment failure composite endpoint; assay type: in vivo, human; conditions: retreatment with antibiotics, oral steroids, death, hospitalization or treatment indicating another exacerbation
Procedure: as §1, §2, §3, §4, §5, §6
=doxycycline 100 mg dose×10 days or a non-macrolide antibiotic concurrent with local prescribing antibiotic guidelines. […]

[3] = system: patients who have an acute COPD exacerbation; experiment: Clinical study in acute COPD exacerbation: dyspnea by Borg CR 10 scores; assay type: in vivo, human; set-up: AUC[days 2-14] in Borg CR 10 scores, Difference LS mean, Compound A - prednisone / AUC[days 2-14] in Borg CR 10 scores (adjusted for Day 1), LS mean / AUC[days 2-14] in Borg CR 10 scores, Difference LS mean, treatment - placebo: unit not given beside the values; conditions: for AUC[days 2-14] in Borg CR 10 scores (adjusted for Day 1), LS mean: per treatment arm; for AUC[days 2-14] in Borg CR 10 scores, Difference LS mean, treatment - placebo: versus placebo
Procedure: “BORG Score” as used herein refers to a measurement of dyspnea in accordance with the Borg scale. On that scale 0 represents no breathlessness at all and 10 represents maximum breathlessness.
as §1, §2, §3, §4, §5, §6, §7
(§9) Key efficacy endpoints: • FEV1 improvement from baseline at Day 5 • BORG Scores • EXACT PRO: • Recovery defined as reduction in EXACT score ≧9 points benchmarked against the maximum observed score (MOV: highest EXACT score using a 3-day rolling average) over the 14 day period following onset. • Time to recovery • Severity • Maximum severity—highest exact score over 30 days • Total severity—area under the curve from onset (i.e. Day 1) to recovery/Day 30 whichever comes first based on total exact score. • Duration of exacerbation (days from onset to recovery/Day 30) • Frequency of patients who recovered at Day 30 • Treatment failure: • Patients who were treated with oral corticosteroids, admitted to hospital to COPD related symptoms, changed in antibiotic therapy relating to COPD, or in the attending physicians opinion needed treatment for a further exacerbation.
LS is an abbreviation for least squares.

[4] = system: patients who have an acute COPD exacerbation; experiment: Clinical study in acute COPD exacerbation: efficacy measured by FEV1; assay type: in vivo, human; conditions: for FEV1 change from baseline, Difference, Compound A v prednisone: single 75 mg oral Compound A v 40 mg oral prednisone x 10 days; for FEV1 change from baseline, Difference, Compound A v placebo: single 75 mg oral dose of Compound A, ANCOVA repeated measurements
Procedure: “Forced Expiratory Volume in One Second” or “FEV1” as used herein is the volume of air that can forcibly be blown out in one second, after full inspiration, which is measured by a spirometer. It is a measure of lung function or performance. Average values for FEV1 in healthy people depend mainly on sex and age. Values of between 80% and 120% of the average value are considered normal.
as §1, §2
Primary objective: Assess the efficacy of a single 75 mg dose of Compound A in COPD patients presenting with an exacerbation as measured by the improvement in FEV1 over the first 5 days of treatment relative to placebo.
as §3, §4, §5, §6, §7
Visits at Days 3, 5 and 14 and follow-up visits 30 and 90 days. End of study visit at 6 months.
as §8
Inclusion criteria for the study population were: • Males/females ≧40 to ≦80 years • GOLD stages 2 to 4 • Smoking history at least 10 pack years • Investigator defined COPD exacerbation
Exclusion criteria for the study population were: • Arterial blood pH <7.26 at randomization • History or presence of clinically uncontrolled left heart failure • Clinical or radiological evidence of pneumonia • Long term Oxygen >15 hours a day • History of clinically significant ECG abnormalities • History or presence of impaired renal function • Use of macrolide antibiotics within 48 hours of randomization
as §9
FEV1 change from baseline analysed with ANCOVA ([…]) model for repeated measurements. Estimated between patient standard deviation—200 ml.

[5] = system: patients who have an acute COPD exacerbation; experiment: Clinical study in acute COPD exacerbation: safety and tolerability (adverse events); assay type: in vivo, human
Procedure: as §1, §2
Secondary objectives: Safety and tolerability, patient reported outcomes, and time to next exacerbation.
as §3, §4, §5, §6, §7
Initial hospitalization for COPD exacerbation at baseline was not recorded as a serious adverse event (SAE). Only subsequent admissions were recorded. […] No rash was noted. No unusual events or imbalances between treatment arms were noted.

[6] = Compound A N = 31, Prednisone N = 30

Cc1ccc(C(=O)NC2CC2)cc1-n1ncc(C(=O)c2cccc(C#N)c2)c1N [Compound A, 3-[5-Amino-4-(3-cyanobenzoyl)-pyrazol-1-yl]-N-cyclopropyl-4-methylbenzamide]
Reason for discontinuation: Death [1]: 0 (0.0) n (%)
Reason for discontinuation: Adverse Events ([1]; 30 days): 0 (0.0) n (%)
Treatment failures (composite endpoint) [2]: 0 patients
Breathlessness over 14 days compared with prednisone ([3]; over 14 days): on average less breathless
AUC[days 2-14] in Borg CR 10 scores (adjusted for Day 1), LS mean ([3]; days 2-14): 3.25
AUC[days 2-14] in Borg CR 10 scores, Difference LS mean, treatment - placebo ([3]; days 2-14, adjusted for Day 1): −0.23
AUC[days 2-14] in Borg CR 10 scores, Difference LS mean, Compound A - prednisone ([3]; versus prednisone, days 2-14, adjusted for Day 1): −0.36
Improvement in FEV1 versus placebo and prednisone ([4]; Day 3): greater improvement in FEV1
FEV1 change from baseline, Difference, Compound A v prednisone ([4]; Day 3): 102.28 mL
FEV1 change from baseline, Difference, Compound A v placebo ([4]; Day 3): 119.59 mL
FEV1 change from baseline, Difference, Compound A v prednisone ([4]; Day 5): 109.15 mL
FEV1 change from baseline, Difference, Compound A v placebo ([4]; Day 5): 46.56 mL
Patients who responded with >100 ml improvement (FEV1) ([4]; day 3, single 75 mg oral dose): 60%
COPD adverse events ([5]; human, in vivo): No COPD adverse events were observed
Number of subjects with AE: Abdominal pain upper ([5]; human, in vivo): 1 (3.2) n (%)
Number of subjects with AE: Any AE ([5]; human, in vivo): 8 (25.8) n (%)
Number of subjects with AE: COPD ([5]; human, in vivo): 0 (0.0) n (%)
Number of subjects with AE: Diarrhoea ([5]; human, in vivo): 1 (3.2) n (%)
Number of subjects with AE: Dizziness ([5]; human, in vivo): 2 (6.5) n (%)
Number of subjects with AE: Headache ([5]; human, in vivo): 1 (3.2) n (%)
Number of subjects with AE: Nasopharyngitis ([5]; human, in vivo): 1 (3.2) n (%)
Number of subjects with AE: Nausea ([5]; human, in vivo): 0 (0.0) n (%)
Number of subjects with AE: Occult blood ([5]; human, in vivo): 1 (3.2) n (%)
Number of subjects with AE: Vertigo ([5]; human, in vivo): 1 (3.2) n (%)
Safety and tolerability ([5]; human, in vivo): safe and well tolerated

C[C@]12C=CC(=O)C=C1CC[C@@H]1[C@@H]2C(=O)C[C@@]2(C)[C@H]1CC[C@]2(O)C(=O)CO [Prednisone, prednisone, reference compound]
Reason for discontinuation: Death [1]: 2 (6.7) n (%)
Reason for discontinuation: Adverse Events [1]: 0 (0.0) n (%)
AUC[days 2-14] in Borg CR 10 scores (adjusted for Day 1), LS mean ([3]; days 2-14): 3.61
AUC[days 2-14] in Borg CR 10 scores, Difference LS mean, treatment - placebo ([3]; days 2-14, adjusted for Day 1): 0.13
Number of subjects with AE: Abdominal pain upper [5, 6]: 1 (3.3) n (%)
Number of subjects with AE: Any AE [5, 6]: 12 (40.0) n (%)
Number of subjects with AE: COPD [5, 6]: 5 (16.7) n (%)
Number of subjects with AE: Diarrhoea [5, 6]: 0 (0.0) n (%)
Number of subjects with AE: Dizziness [5, 6]: 0 (0.0) n (%)
Number of subjects with AE: Headache [5, 6]: 3 (10.0) n (%)
Number of subjects with AE: Nasopharyngitis [5, 6]: 1 (3.3) n (%)
Number of subjects with AE: Nausea [5, 6]: 2 (6.7) n (%)
Number of subjects with AE: Occult blood [5, 6]: 1 (3.3) n (%)
Number of subjects with AE: Vertigo [5, 6]: 1 (3.3) n (%)
